Measured values as given in patent US20250270227A1, “CAMPTOTHECIN DERIVATIVE, AND PHARMACEUTICAL COMPOSITION AND USE THEREOF” (SIMCERE ZAIMING PHARMACEUTICAL CO., LTD., priority 2021, published 2025).
Read-outs that look alike come from different tables or passages of the source.

What was measured:
[1] = system: Human colorectal cancer cell line HCT116; experiment: Test 1 of anti-proliferative activity against tumor cells (Cell-Titer Glo); type: cell-based
Procedure, shortened: (§1)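 HCT116, SKBR3 and OVCAR3 cells seeded 24 h, then treated with 9-point 3-fold dilutions (final 0-300 nM); HCT116 incubated 3 days, SKBR3 and OVCAR3 5 days at 37° C, 5% CO2. Viability by Cell-Titer Glo luminescence, inhibition normalised to DMSO and no-cell wells, IC50 fitted.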

[2] = system: human breast cancer cell line SKBR3; experiment: as above; type: cell-based
Procedure, shortened: as §1

[3] = system: human ovarian cancer cell line OVCAR3; experiment: as above; type: cell-based
Procedure, shortened: as §1

[4] = Plasma protein binding rate (equilibrium dialysis); type: in vitro ADME, human; settings: pH 7.4
Protocol: The protein binding rates of the compounds of the present disclosure in human and mouse plasma were determined by the following experimental method.
• 1. Human plasma (BioIVT), CD-1 mouse plasma (BiolVT) • 2. Na2HPO4 (Sigma S5136-500G) • 3. NaH2PO4 (Sigma 53139-500G) • 4. NaCl (Sigma S5886-IKG) • 5. 96-well equilibrium dialysis plate (HTDialysis LLC, Gales Ferry, CT, HTD96B) and equilibrium dialysis membrane (MWCO 12-14K, 1101) • 6. Positive control compound warfarin • 7. ABI QTrap 5500 liquid chromatography-mass spectrometry
• 1. Preparation of a buffer with a concentration of 100 mM sodium phosphate and 150 mM NaCl: An alkaline solution with a concentration of 14.2 g/L Na2HPO4 and 8.77 g/L NaCl was prepared with ultrapure water, and an acidic solution with a concentration of 12.0 g/L NaH2PO4 and 8.77 g/L NaCl was prepared with ultrapure water. Then the alkaline solution was titrated to pH 7.4 with the acidic solution to prepare a buffer with a concentration of 100 mM sodium phosphate and 150 mM NaCl. • 2. Preparation of dialysis membrane: The dialysis membrane was soaked in ultrapure water for 60 min to separate the membrane into two pieces, then soaked in 20% ethanol for 20 min, and finally soaked in a buffer used for dialysis for 20 min. • 3. Preparation of plasma: The frozen plasma was quickly thawed at room temperature, and then centrifuged at 3220 g for 10 min at 4° C. to remove clots, and the supernatant was collected into a new centrifugal tube. The pH of the plasma was determined and recorded, and the plasma with pH of 7-8 was used. • 4. Preparation of compound-containing plasma samples: The 10 mM stock solution of the compound of the present invention or the positive control compound was diluted with DMSO to obtain a 200 μM working solution. To 597 μl of human or mouse plasma was added 3 μl of 200 μM compound working solution to obtain a plasma sample with a final concentration of 1 μM. • 5. […]
The peak areas of the compound on the buffer side and the plasma side were determined. […]

[5] = Homo sapiens, HCT-116, 72 h, read-out: HCT116 Anti-proliferative activity IC50 (nM), HCT116 cells, cultured 3 days with compound, Cell-Titer Glo
[6] = Homo sapiens, SK-BR-3, 120 h, read-out: SKBR3 Anti-proliferative activity IC50 (nM), SKBR3 cells, cultured 5 days with compound, Cell-Titer Glo
[7] = Homo sapiens, OVCAR-3, 120 h, OVCAR3 cells, cultured 5 days with compound, Cell-Titer Glo, read-out: OVCAR3 Anti-proliferative activity IC50
[8] = Homo sapiens, HCT-116, 72 h, HCT116 cells, cultured 3 days with compound, Cell-Titer Glo, read-out: HCT116 Anti-proliferative activity IC50
[9] = Homo sapiens, SK-BR-3, 120 h, SKBR3 cells, cultured 5 days with compound, Cell-Titer Glo, read-out: SKBR3 Anti-proliferative activity IC50

| Structure (SMILES) | IC50 [1, 5] | IC50 [2, 6] | IC50 [3, 7] | IC50 [1, 8] | IC50 [2, 9] | fraction unbound at 6 h, 1 μM ([4]; human, plasma) | other results |
| --- | --- | --- | --- | --- | --- | --- | --- |
| CC[C@@]1(O)C(=O)OCc2c1cc1n(c2=O)Cc2c-1nc1cc3c(cc1c2CNC(=O)C(O)C1CC1)OCO3 (single isomer, unassigned) [Compound 14-P1] | 9.8 nM | 2.1 nM | 0.6 nM |  |  |  | fraction unbound at 6 h, 1 μM ([4]; human plasma, 1 μM, equilibrium dialysis 6 h, 37° C., read-out: % Human plasma protein binding rate (converted)): 0.106 |
| CC[C@@]1(O)C(=O)OCc2c1cc1n(c2=O)Cc2c-1nc1cc3c(cc1c2CNC(=O)C(O)C1CC1)OCO3 (single isomer, unassigned) [Compound 14-P2] |  |  |  |  |  |  | IC50 ([1]; read-out: HCT116 Anti-proliferative activity IC50, HCT116 cells, cultured 3 days with compound, Cell-Titer Glo): 12.4 nM; IC50 ([2]; read-out: SKBR3 Anti-proliferative activity IC50, SKBR3 cells, cultured 5 days with compound, Cell-Titer Glo): 3.5 nM; IC50 ([3]; OVCAR3 cells, cultured 5 days with compound, Cell-Titer Glo, read-out: OVCAR3 Anti-proliferative activity IC50): 1 nM |
| CC[C@@]1(O)C(=O)OCc2c1cc1n(c2=O)Cc2c-1nc1cc3c(c(F)c1c2CNC(=O)[C@@H](O)C1CC1)OCO3 (single isomer, unassigned) [Compound 37-P1] |  |  | 0.5 nM | 4.8 nM | 2.1 nM | 0.128 |  |
| CC[C@@]1(O)C(=O)OCc2c1cc1n(c2=O)Cc2c-1nc1cc3c(cc1c2CNC(=O)C(O)C1CC1)OCO3 (stereo partly drawn) [Compound 14, 2-cyclopropyl-N-(((S)-7-ethyl-7-hydroxy-8,11-dioxo-7,8,11,13-tetrahydro-10H-[1,3]dioxolo[4,5-g]pyrano[3′,4′:6,7]indolizino[1,2-b]quinolin-14-yl)methyl)-2-hydroxyacetamide] | 8.4 nM | 2.2 nM |  |  |  |  | IC50 ([3]; Homo sapiens, OVCAR-3, 120 h, read-out: OVCAR3 Anti-proliferative activity IC50 (nM)): 0.9 nM |
| [2H]C1([2H])Oc2cc3nc4c(c(CNC(=O)C(O)C5CC5)c3cc2O1)Cn1c-4cc2c(c1=O)COC(=O)[C@]2(O)CC (stereo partly drawn) [Compound 39, 2-cyclopropyl-N-(((S)-7-ethyl-7-hydroxy-8,11-dioxo-7,8,11,13-tetrahydro-10H-[1,3]dioxolo[4,5-g]pyrano[3′,4′:6,7]indolizino[1,2-b]quinolin-14-yl-2,2-d2)methyl)-2-hydroxyacetamide] |  |  | 1 nM | 9.5 nM | 2.9 nM | 0.081 |  |
